Data: patent US6133311A, “Method for preventing or treating elevated blood lipid level-related diseases by administering natural phenolic compounds” (priority 1998, dated 2000)

Legend:
[1] = acute oral toxicity in mice; assay type: in vivo, ICR mice; details: for toxicity: oral, mouse, single dose 5,000 mg/kg
Description: Toxicity of Orally Administered tannin, gallic acid or ellagic acid
36 seven-week-old, specific pathogen-free ICR […] female mice each weighing about 25 to 29 g and 18 male mice each weighing about 34 to 38 9, were kept under an environment of 22±1° C., 55±5% relative humidity and 12L/12D photoperiod. Fodder (Cheiljedang Co., mouse and rat fodder) and water were sterilized and fed to the mice.
Tannin, gallic acid or ellagic acid purchased from Aldrich-Sigma Chemical Co. (St. Louis, Mo., U.S.A) was dissolved in 0.5% Tween 80 to a concentration of 500 mg/ml, and the solution was orally administered to the mice in an amount of 0.2 ml per 20 g of mouse body weight. […] Further, on the 10th day, the mice were sacrificed and the internal organs were visually examined.

[2] = test system: main artery (arterial endothelium); test: analysis for fatty streak in the main artery of rabbits; assay type: in vivo, New Zealand White rabbits; details: for Fatty streak (proportion of stained region to total arterial area): 1% cholesterol diet plus 0.1% compound (Lovastatin 1 mg/kg), Control 35 ± 14; for Fatty streak (proportion of stained region to total arterial area) / plaque formation in the endothelium of the main artery: 6 weeks; for deposition of macrophages on the arterial endothelium: blood cholesterol level high
Description: (§1) 30 three-month-old male New Zealand White rabbits (Yeonam Horticulture and Animal Husbandry College, Korea), each weighing about 2.5 to 2.6 kg, were raised under a condition of temperature 20+2° C., relative humidity 55±5%, and photoperiod 12L/12D. The rabbits were divided into 5 groups and 5 groups of rabbits were fed with 5 different diets, i.e., RC4 diet (Oriental Yeast Co., Japan) containing 1% cholesterol (Control group, 1); 1% cholesterol plus 1 mg/kg Lovastatin® (Merck, U.S.A.) (Lovastatin® group, 2); 1% cholesterol plus 0.1% tannin (3); 1% cholesterol plus 0.1% gallic acid (4); and 1% cholesterol plus 0.1% ellagic acid (5), respectively. RC4 diet comprises 7.6% moisture, 22.8% crude protein, 2.8% crude fat, 8.8% crude ash, 14.4% crude cellulose and 43.6% soluble nitrogen-free substances. Tannin, gallic acid and ellagic acid were purchased from Sigma Chemical Co. (St. Louis, Mo.).
(§2) The rabbits were fed for 6 weeks while being allowed free access to the diets and water.
(Step 3) Analysis for fatty streak in the main artery
The chest of each of the rabbits sacrificed in Step 2 was incised. The downward portion of the main artery from the site 1 cm above the aortic valve was cut out in a length of about 5 cm and the fat surrounding the main artery was removed. The main artery was incised in the middle along the longitudinal axis and pinned to a dish. The moist artery was photographed and, then, the staining of fatty streaks was carried out in accordance with the method of Esper, E., et al. (J. Lab. Clin. Med., 121, 103-110 (1993)) as follows.
A part of the incised main artery was washed three times with anhydrous propylene glycol for 2 min. and stained for 30 min. with a saturated solution of Oil Red O (ORO, Sigma Co.) dissolved in propylene glycol. Thereafter, the artery was washed twice with 85% propylene glycol for 3 min. to remove remaining staining solution and, then washed with physiological saline. The artery was photographed and the photograph was traced. The area of stained region (fatty streak region) was determined with an image analyzer (LEICA, Q-600, Germany) and its proportion (%) to the total arterial area was calculated.
FIGS. 1A, 1B and 1C show the arteries of the rabbits administered with 1% cholesterol (Control group); 1% cholesterol plus 1 mg/kg Lovastatin® (Lovastatin® group); 1% cholesterol plus 0.1% ellagic acid, respectively.

[3] = test system: liver cells around the central vein; test: fatty liver: proportion of abnormal fat-containing cells in the liver of rabbits; assay type: in vivo, New Zealand White rabbits; details: 6 weeks; for A: Proportion of abnormal fat-containing liver cells (grade): 1% cholesterol diet plus 0.1% compound (Lovastatin 1 mg/kg), mean of grades 1+ to 4+, Control 3.2 ± 0.3; for inhibition of the formation of fatty liver: 1% cholesterol diet
Description: as §1, §2
(Step 5) Prevention of Hepatic Diseases

| Compound | weight loss ([1]; oral 5,000 mg/kg, 10 day test period) | pathological abnormality at autopsy ([1]; oral 5,000 mg/kg, day 10) | survival ([1]; oral 5,000 mg/kg, day 10) | toxicity [1] | Fatty streak (proportion of stained region to total arterial area) [2] [%] | plaque formation in the endothelium of the main artery [2] | deposition of macrophages on the arterial endothelium [2] | A: Proportion of abnormal fat-containing liver cells (grade) [3] | inhibition of the formation of fatty liver [3] |
| --- | --- | --- | --- | --- | --- | --- | --- | --- | --- |
| O=C(O)c1cc(O)c(O)c(O)c1 [Gallic acid, gallic acid] | no weight loss | had not developed any pathological abnormality | All the mice were alive at day 10 | no toxicity | 10 ± 2 | inhibit | strongly inhibit | 2.7 ± 0.4 | can significantly inhibit the formation of fatty liver |
| tannin |  |  |  | no toxicity | 13 ± 2 | inhibit | strongly inhibit | 2.7 ± 0.4 | significantly inhibit the formation of fatty liver |
